Details: Liquid; for mass density: Buoyancy - hydrostatic balance; for viscosity: Falling or rolling sphere viscometry

OCCOCCOCCO [triethylene glycol]
Details | mass density [kg/m3] | viscosity [mPa·s]
298.15 K, 98 kPa | 1119.75 | 36.82
298.15 K, 49030 kPa | 1143.46 | 55.23
298.15 K, 98060 kPa | 1161.38 | 80.29
298.15 K, 147100 kPa | 1175.25 | 114.4
298.15 K, 196130 kPa | 1189.31 | 160.6
298.15 K, 245160 kPa | 1200.31 | 221.8
312.96 K, 98 kPa | 1109.61 | 19.03
313.05 K, 49030 kPa | 1134.18 | 27.42
313.1 K, 98060 kPa | 1152.38 | 38.28
313.18 K, 147100 kPa | 1166.44 | 52.5
313.25 K, 196130 kPa | 1180.35 | 70.68
313.26 K, 245160 kPa | 1191.47 | 93.99
334.96 K, 98 kPa | 1093.69 | 9.002
335.11 K, 49030 kPa | 1119.52 | 12.45
335.14 K, 98060 kPa | 1138.49 | 16.7
335.2 K, 147100 kPa | 1153.34 | 22.03
335.25 K, 196130 kPa | 1167.46 | 28.48
335.26 K, 245160 kPa | 1178.87 | 36.37
349.25 K, 98 kPa | 1082.8 | 5.945
349.94 K, 196130 kPa | 1158.94 | 17.53
349.98 K, 49030 kPa | 1109.01 | 8.061
349.98 K, 98060 kPa | 1128.74 | 10.66
349.99 K, 245160 kPa | 1170.6 | 21.84
350.03 K, 147100 kPa | 1144.4 | 13.75
364.44 K, 98 kPa | 1070.74 | 4.131
364.44 K, 49030 kPa | 1098.31 | 5.537
364.72 K, 98060 kPa | 1118.72 | 7.149
365.03 K, 147100 kPa | 1135.26 | 9.021
365.07 K, 196130 kPa | 1150.26 | 11.24
365.2 K, 245160 kPa | 1162.2 | 13.8
413.73 K, 98 kPa | 1028.27 | 1.679
414 K, 49030 kPa | 1058.03 | 2.179
414.15 K, 98060 kPa | 1082.77 | 2.836
414.27 K, 147100 kPa | 1104.57 | 3.32
414.3 K, 196130 kPa | 1122.57 | 3.995
414.43 K, 245160 kPa | 1136 | 4.485
462.25 K, 98 kPa | 981.42 | 0.997
462.26 K, 49030 kPa | 1013.43 | 1.303
462.32 K, 98060 kPa | 1044.24 | 1.614
462.41 K, 147100 kPa | 1073.54 | 1.941
462.45 K, 196130 kPa | 1096.35 | 2.3
462.58 K, 245160 kPa | 1111.83 | 2.678

OCCO [1,2-ethanediol]
Details | mass density [kg/m3] | viscosity [mPa·s]
293.15 K, 98 kPa | 1113.58 | 21.1
293.15 K, 49030 kPa | 1134.56 | 26.75
293.15 K, 98060 kPa | 1147.72 | 33.42
293.15 K, 147100 kPa | 1159.85 | 41.19
293.15 K, 196130 kPa | 1173.34 | 50.33
293.15 K, 245160 kPa | 1185.44 | 60.43
312.46 K, 98 kPa | 1100.88 | 9.925
312.46 K, 98060 kPa | 1139.02 | 14.82
312.49 K, 49030 kPa | 1123.04 | 12.24
312.49 K, 147100 kPa | 1153.18 | 17.64
312.65 K, 245160 kPa | 1179.39 | 24.69
334.87 K, 98 kPa | 1085.13 | 4.949
335 K, 49030 kPa | 1108.43 | 5.952
335.3 K, 98060 kPa | 1127.05 | 7.031
335.35 K, 245160 kPa | 1169.07 | 11.15
335.43 K, 147100 kPa | 1143.57 | 8.234
335.45 K, 196130 kPa | 1156.71 | 9.608
349.24 K, 98 kPa | 1074.46 | 3.517
349.5 K, 49030 kPa | 1098.33 | 4.157
349.65 K, 98060 kPa | 1118.59 | 4.89
349.67 K, 147100 kPa | 1136.69 | 5.688
349.8 K, 196130 kPa | 1149.28 | 6.541
349.91 K, 245160 kPa | 1161.91 | 7.454
365.7 K, 98 kPa | 1061.7 | 2.39
366.1 K, 49030 kPa | 1086.11 | 2.816
366.15 K, 98060 kPa | 1107.99 | 3.302
366.37 K, 147100 kPa | 1127.71 | 3.812
366.48 K, 196130 kPa | 1139.94 | 4.344
366.8 K, 245160 kPa | 1153.08 | 4.889
380.15 K, 98060 kPa | 1098.24 | 2.558
380.82 K, 98 kPa | 1049.47 | 1.872
381 K, 49030 kPa | 1074.54 | 2.207
381.2 K, 196130 kPa | 1131.06 | 3.345
381.27 K, 147100 kPa | 1118.88 | 2.932
381.3 K, 245160 kPa | 1145.04 | 3.784
395.55 K, 98 kPa | 1037.07 | 1.419
395.6 K, 49030 kPa | 1062.66 | 1.673
395.61 K, 98060 kPa | 1086.68 | 1.936
395.65 K, 147100 kPa | – | 2.214
395.73 K, 196130 kPa | 1121.71 | 2.501
395.8 K, 245160 kPa | 1136.57 | 2.811
421.7 K, 98 kPa | 1013.93 | 0.96
421.71 K, 49030 kPa | 1040.05 | 1.174
421.8 K, 98060 kPa | 1065.2 | 1.345
421.9 K, 147100 kPa | 1090.87 | 1.521
422 K, 196130 kPa | – | 1.716
422 K, 245160 kPa | 1120.22 | 1.898
464.4 K, 98 kPa | 972.98 | 0.652
464.47 K, 98060 kPa | 1025.08 | 0.97
464.53 K, 196130 kPa | 1069.52 | 1.203
464.53 K, 245160 kPa | 1090.75 | 1.356
464.54 K, 147100 kPa | 1055.29 | 1.11
464.6 K, 49030 kPa | 999.13 | 0.877

OCCOCCO [diethylene glycol]
Details | mass density [kg/m3] | viscosity [mPa·s]
293.15 K, 98 kPa | 1117.04 | 36.52
293.15 K, 49030 kPa | 1137.67 | 52.72
293.15 K, 98060 kPa | 1158.16 | 74.16
293.15 K, 147100 kPa | 1171 | 102.6
293.15 K, 196130 kPa | 1184.89 | 139.9
293.15 K, 245160 kPa | 1196.63 | 187.3
298.15 K, 98 kPa | 1114.02 | 28.36
298.15 K, 49030 kPa | 1135.41 | 40.36
298.15 K, 98060 kPa | 1155.68 | 56.52
298.15 K, 147100 kPa | 1168.88 | 77.16
298.15 K, 196130 kPa | 1182.6 | 103.8
298.15 K, 245160 kPa | 1194.5 | 138.3
312.6 K, 98 kPa | 1104.9 | 15.25
312.62 K, 49030 kPa | 1128.43 | 21.04
312.63 K, 98060 kPa | 1148.18 | 28.2
312.67 K, 147100 kPa | 1162.46 | 37.14
312.71 K, 196130 kPa | 1175.84 | 48.29
312.75 K, 245160 kPa | 1188.18 | 62.07
329.28 K, 98 kPa | 1093.62 | 8.458
329.33 K, 98060 kPa | 1138.99 | 14.73
329.33 K, 196130 kPa | 1167.96 | 23.82
329.33 K, 245160 kPa | 1180.84 | 29.61
329.38 K, 49030 kPa | 1119.54 | 11.29
329.38 K, 147100 kPa | 1154.56 | 18.83
344.99 K, 98 kPa | 1082.27 | 5.34
345.2 K, 49030 kPa | 1110.34 | 7.062
345.38 K, 98060 kPa | 1129.61 | 8.969
345.47 K, 147100 kPa | 1146.46 | 11.23
345.61 K, 196130 kPa | 1160.06 | 13.81
345.78 K, 245160 kPa | 1173.38 | 16.75
349.77 K, 98 kPa | 1078.67 | 4.809
350.06 K, 49030 kPa | 1107.36 | 6.25
350.13 K, 147100 kPa | 1144.02 | 9.866
350.16 K, 98060 kPa | 1126.71 | 7.904
350.4 K, 196130 kPa | 1157.71 | 12.04
366.77 K, 98 kPa | 1065.35 | 3.231
367.13 K, 49030 kPa | 1096.31 | 4.124
367.26 K, 147100 kPa | 1134.7 | 6.331
367.3 K, 98060 kPa | 1115.94 | 5.145
367.37 K, 196130 kPa | 1149.25 | 7.607
367.61 K, 245160 kPa | 1163.2 | 9.086
413.65 K, 98 kPa | 1024.3 | 1.409
413.8 K, 49030 kPa | 1061.47 | 1.78
413.93 K, 98060 kPa | 1083.55 | 2.153
414.01 K, 147100 kPa | 1106.4 | 2.554
414.09 K, 196130 kPa | 1124.99 | 2.987
414.29 K, 245160 kPa | 1140.38 | 3.474
463.94 K, 98060 kPa | 1043.8 | 1.218
463.99 K, 49030 kPa | 1016.46 | 1.002
464.05 K, 98 kPa | 973.11 | 0.789
464.09 K, 147100 kPa | 1071.5 | 1.432
464.2 K, 196130 kPa | 1097.41 | 1.655
464.37 K, 245160 kPa | 1114.3 | 1.879

From the NIST ThermoML archive (doi:10.1016/j.fluid.2011.11.022)
